Paper PMC10689823, “Discovery of a Drug-like, Natural Product-Inspired DCAF11 Ligand Chemotype” (Nature Communications, 2023)
“And” between values parts separate entries of the source, which are not always exact repeats. Equal entries are not always repeated.

What was measured:
BLK = biological target: T1, BLK (Homo sapiens, UniProt P51451); assay: BLK levels by Western blot in Ramos cells; format: cell-based
T1 construct: endogenous in cells; host or cells: Ramos
Protocol: (§1) Cells were washed with PBS and lysed in lysis buffer (50 mM Tris-HCl, pH 7.4, 150 mM NaCl, 1% Triton X-100, 1% sodium deoxycholate, 0.1% SDS) with complete protease inhibitor cocktail (Roche, 11836170001) for 30 min on ice. For Ramos cells, cell pellets were lysed in lysis buffer (50 mM Tris-HCl, pH 8, 150 mM NaCl, 1% NP-40, 0.5% sodium deoxycholate) with complete protease inhibitor cocktail. After centrifugation at 16,000 x g, the supernatant was transferred into a new tube and the protein concentration was determined by DC protein assay (BIO-RAD, 5000116). Proteins were separated by SDS-PAGE and transferred to a PVDF membrane (Thermo scientific, 0.45 μm, 88518). For PDEδ, BRD2, GAPDH, BRD4, Vinculin and BTK, the membranes were blocked with Intercept® Blocking Buffer (LI-COR Biosciences, 927-70001) at room temperature for 1 h. The primary antibodies for these proteins were diluted with Intercept® Blocking Buffer (1:500 for PDEδ, 1:3000 for Vinculin, and 1:1000 for other proteins) and incubated with the membranes overnight at 4 °C. Membranes were washed with PBS + 0.1% Tween 20 (PBS-T) five times and incubated with secondary antibodies conjugated to IRDye® Infrared Fluorescent Dyes (1:5000, LI-COR Biosciences) at room temperature for 1 h with protection from light. After washing the membrane, signals were visualized using the ChemiDoc MP Imaging System (BIO-RAD Laboratories). For detection of LC3B, BRD3, BLK, DCAF11, DDB1 RBX1, FIP200, V5- and FLAG-Tag the membranes were blocked with 5% milk in PBS-T at room temperature for 1 h. The primary antibodies for these proteins were diluted in 5% milk in PBS-T buffer (1:200 for BRD3, 1:1000 for other proteins) and incubated with the membranes overnight at 4 °C. Membranes were washed with PBS-T five times and incubated with HRP secondary antibodies (1:1500) at room temperature for 1 h. After washing the membrane, protein detection was performed using Western blotting detection reagent (Thermo Scientific, 34095) and the ChemiDoc MP Imaging System (BIO-RAD). Relative band intensities were quantified using Image Lab (BIO-RAD).

BTK = biological target: T2, BTK (Homo sapiens, UniProt Q06187); assay: BTK levels by Western blot in Ramos cells; format: cell-based; details: 6 h
T2 construct: endogenous in cells; host or cells: Ramos
Protocol: as §1, with “After washing the membrane, signals were visualized using the ChemiDoc MP Imaging System (BIO-RAD Laboratories). For detection of LC3B, BRD3, BLK, DCAF11, DDB1 RBX1, FIP200, V5- and FLAG-Tag the membranes were blocked with 5% milk in PBS-T at room temperature for 1 h. The primary antibodies for these proteins were diluted in 5% milk in PBS-T buffer (1:200 for BRD3, 1:1000 for other proteins) and incubated with the membranes overnight at 4 °C. Membranes were washed with PBS-T five times and incubated with HRP secondary antibodies (1:1500) at room temperature for 1 h. After washing the membrane, protein detection was performed using Western blotting detection reagent (Thermo Scientific, 34095) and the ChemiDoc MP Imaging System (BIO-RAD).” left out

SIRT2 = biological target: T3, SIRT2 (Homo sapiens, UniProt Q8IXJ6); assay: SIRT activity assay SIRT2; format: biochemical; details: SIRT2 activity in presence of 3 µM compound 42
T3 construct: purchased BPS Bioscience 50087 (assay kit)
Protocol: (§2) In vitro enzymatic SIRT assays were performed by BPS Bioscience for SIRT1, SIRT2, SIRT3, SIRT5 and SIRT6 using the respective SIRT Fluorogenic Assay Kit (BPS Bioscience, catalog numbers 50081, 50087, 50088, 50085 and 50022). The compound was pre-incubated in for 30 min at room temperature in a mixture containing SIRT assay buffer, 5 μg BSA, SIRT enzyme. Afterwards, the enzymatic reaction was initiated by the addition of SIRT substrate to a final concentration of 10 μM. The enzymatic reaction proceeded for 30 min at 37 °C followed by the addition of 2 x SIRT Developer and incubation at room temperature for 15 min. Fluorescence intensity was measured at an ex/em 360/460 nm using a Tecan Infinite M1000 microplate reader.

[1] = tested on: wildtype and mutant 482 kinases; assay: Kinase profiling (SelectScreen); format: biochemical; details: 10 µM; panel of 482 wildtype and mutant kinases
Protocol: Compound 42 was profiled in duplicate at 10 µM against wildtype and mutant 482 kinases using the SelectScreen Kinase profiling services (ThermoFisher Scientific, USA) using enzymatic assays (Z’-Lyte and Adapta technology) or binding assays (LanthaScreen Eu kinase binding assays) (see https://www.thermofisher.com/de/de/home/products-and-services/services/custom-services/screening-and-profiling-services/selectscreen-profiling-service/selectscreen-kinase-profiling-service.html).

SIRT3 = biological target: T4, SIRT3 (Homo sapiens, UniProt Q9NTG7); assay: SIRT activity assay SIRT3; format: biochemical; details: SIRT3 activity in presence of 3 µM compound 42
T4 construct: purchased BPS Bioscience 50088 (assay kit)
Protocol: as §2

BRD2 = assay: In-Cell Western for BRD2 levels in Hep G2 cells; format: cell-based; details: then 9 (10 μM, 4 h)
Protocol: Hep G2 cells were seeded in 96-well plates and incubated for 24 h. Compounds were added for the indicated time at the indicated concentration. Cells were then washed once with PBS and fixed with 4% paraformaldehyde for 30 min at room temperature. The fixed cells were permeabilized with 0.5 % Triton-X100 for 15 min followed by block with Intercept® Blocking Buffer (LI-COR Biosciences, 927-70001) for 1 h at room temperature. Primary antibodies for BRD2 (1:800) and Vinculin (1:2000) were diluted with LI-COR buffer and incubated with the cells at 4 °C overnight. Cells were washed with PBS-T, and the secondary antibodies conjugated to IRDye (1:1000, LI-COR Biosciences) were added to the cells for 1 h at room temperature. After washing the cells, the signal was recorded with the Odyssey® CLx Infrared Imaging System (LI-COR Biosciences) and the protein levels were analyzed by Image Studio (LI-COR Biosciences). BRD2 protein levels were normalized to the levels of reference protein vinculin.

SIRT6 = biological target: T5, SIRT6 (Homo sapiens, UniProt Q8N6T7); assay: SIRT activity assay SIRT6; format: biochemical; details: SIRT6 activity in presence of 3 µM compound 42
T5 construct: purchased BPS Bioscience 50022 (assay kit)
Protocol: as §2

SIRT5 = biological target: T6, SIRT5 (Homo sapiens, UniProt Q9NXA8); assay: SIRT activity assay SIRT5; format: biochemical; details: SIRT5 activity in presence of 3 µM compound 42
T6 construct: purchased BPS Bioscience 50085 (assay kit)
Protocol: as §2

SIRT1 = biological target: T7, SIRT1 (Homo sapiens, UniProt Q96EB6); assay: SIRT activity assay SIRT1; format: biochemical; details: SIRT1 activity in presence of 3 µM compound 42
T7 construct: purchased BPS Bioscience 50081 (assay kit)
Protocol: as §2

T1 sequence (P51451 whole entry): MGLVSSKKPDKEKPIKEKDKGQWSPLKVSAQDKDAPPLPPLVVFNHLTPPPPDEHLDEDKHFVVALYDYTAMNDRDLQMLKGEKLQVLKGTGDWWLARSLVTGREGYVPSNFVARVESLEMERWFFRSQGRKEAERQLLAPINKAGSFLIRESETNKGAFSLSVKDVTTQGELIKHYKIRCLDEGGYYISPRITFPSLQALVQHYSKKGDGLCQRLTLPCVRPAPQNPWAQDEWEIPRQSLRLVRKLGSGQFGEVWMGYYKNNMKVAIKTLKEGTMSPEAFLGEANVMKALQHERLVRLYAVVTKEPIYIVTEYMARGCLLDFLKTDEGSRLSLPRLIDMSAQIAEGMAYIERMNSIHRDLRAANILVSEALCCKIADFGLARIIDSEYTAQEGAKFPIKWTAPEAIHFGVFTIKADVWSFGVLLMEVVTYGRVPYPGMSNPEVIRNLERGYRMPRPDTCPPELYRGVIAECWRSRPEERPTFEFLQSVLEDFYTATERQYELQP
T3 sequence (Q8IXJ6 whole entry): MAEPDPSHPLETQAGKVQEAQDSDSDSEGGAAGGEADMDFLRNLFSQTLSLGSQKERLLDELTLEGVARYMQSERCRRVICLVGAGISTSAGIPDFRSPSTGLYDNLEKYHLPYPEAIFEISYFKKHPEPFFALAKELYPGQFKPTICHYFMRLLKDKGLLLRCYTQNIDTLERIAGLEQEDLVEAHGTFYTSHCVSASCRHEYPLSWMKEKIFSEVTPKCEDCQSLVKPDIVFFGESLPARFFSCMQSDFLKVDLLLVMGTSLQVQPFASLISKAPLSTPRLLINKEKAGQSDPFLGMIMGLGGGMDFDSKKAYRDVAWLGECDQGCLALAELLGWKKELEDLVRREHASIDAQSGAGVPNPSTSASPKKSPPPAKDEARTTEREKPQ
T6 sequence (Q9NXA8 37-310): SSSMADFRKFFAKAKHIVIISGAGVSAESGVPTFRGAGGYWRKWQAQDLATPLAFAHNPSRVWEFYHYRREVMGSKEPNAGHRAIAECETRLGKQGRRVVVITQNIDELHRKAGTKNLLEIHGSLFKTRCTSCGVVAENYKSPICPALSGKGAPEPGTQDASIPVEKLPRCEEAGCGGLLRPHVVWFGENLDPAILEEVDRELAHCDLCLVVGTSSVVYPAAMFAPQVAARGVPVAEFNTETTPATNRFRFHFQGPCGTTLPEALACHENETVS
T5 sequence (Q8N6T7 whole entry): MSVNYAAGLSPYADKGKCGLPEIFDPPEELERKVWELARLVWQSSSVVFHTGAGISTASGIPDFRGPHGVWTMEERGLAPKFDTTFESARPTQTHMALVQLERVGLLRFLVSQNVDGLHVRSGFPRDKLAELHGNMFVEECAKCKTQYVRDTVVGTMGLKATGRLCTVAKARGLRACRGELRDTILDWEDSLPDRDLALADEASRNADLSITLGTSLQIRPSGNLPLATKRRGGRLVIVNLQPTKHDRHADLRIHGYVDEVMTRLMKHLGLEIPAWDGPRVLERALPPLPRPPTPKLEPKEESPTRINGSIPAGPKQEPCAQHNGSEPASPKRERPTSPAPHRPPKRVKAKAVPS
T7 sequence (Q96EB6 whole entry): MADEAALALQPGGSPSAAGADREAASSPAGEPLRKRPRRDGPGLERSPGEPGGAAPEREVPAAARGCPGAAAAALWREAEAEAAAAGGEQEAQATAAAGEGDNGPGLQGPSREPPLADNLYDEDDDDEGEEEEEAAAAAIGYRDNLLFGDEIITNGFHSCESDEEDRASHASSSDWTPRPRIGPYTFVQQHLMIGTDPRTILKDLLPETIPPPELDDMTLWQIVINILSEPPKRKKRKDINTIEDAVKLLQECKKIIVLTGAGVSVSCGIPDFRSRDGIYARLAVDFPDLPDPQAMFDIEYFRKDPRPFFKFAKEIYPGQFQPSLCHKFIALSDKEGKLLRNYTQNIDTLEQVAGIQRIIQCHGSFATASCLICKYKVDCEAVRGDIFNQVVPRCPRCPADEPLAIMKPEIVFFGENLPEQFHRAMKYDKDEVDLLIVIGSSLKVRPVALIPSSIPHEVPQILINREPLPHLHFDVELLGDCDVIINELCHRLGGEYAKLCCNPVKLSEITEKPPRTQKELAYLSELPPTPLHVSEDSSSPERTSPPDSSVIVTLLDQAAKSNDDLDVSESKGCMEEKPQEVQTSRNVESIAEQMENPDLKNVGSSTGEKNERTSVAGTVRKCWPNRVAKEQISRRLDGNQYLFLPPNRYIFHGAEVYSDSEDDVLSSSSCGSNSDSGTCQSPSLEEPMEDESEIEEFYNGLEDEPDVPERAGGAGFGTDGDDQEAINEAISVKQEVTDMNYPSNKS
T4 sequence (Q9NTG7 whole entry): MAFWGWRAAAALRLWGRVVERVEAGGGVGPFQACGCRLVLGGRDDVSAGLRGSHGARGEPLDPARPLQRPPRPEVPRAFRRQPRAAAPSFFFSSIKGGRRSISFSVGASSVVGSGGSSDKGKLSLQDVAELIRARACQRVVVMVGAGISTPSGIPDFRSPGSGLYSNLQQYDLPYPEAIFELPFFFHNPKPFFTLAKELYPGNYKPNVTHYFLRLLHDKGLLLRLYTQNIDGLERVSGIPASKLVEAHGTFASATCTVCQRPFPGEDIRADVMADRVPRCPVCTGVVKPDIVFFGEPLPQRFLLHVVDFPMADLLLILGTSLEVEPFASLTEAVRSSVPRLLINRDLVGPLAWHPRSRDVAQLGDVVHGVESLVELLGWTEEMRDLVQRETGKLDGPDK
T2 sequence (Q06187 whole entry): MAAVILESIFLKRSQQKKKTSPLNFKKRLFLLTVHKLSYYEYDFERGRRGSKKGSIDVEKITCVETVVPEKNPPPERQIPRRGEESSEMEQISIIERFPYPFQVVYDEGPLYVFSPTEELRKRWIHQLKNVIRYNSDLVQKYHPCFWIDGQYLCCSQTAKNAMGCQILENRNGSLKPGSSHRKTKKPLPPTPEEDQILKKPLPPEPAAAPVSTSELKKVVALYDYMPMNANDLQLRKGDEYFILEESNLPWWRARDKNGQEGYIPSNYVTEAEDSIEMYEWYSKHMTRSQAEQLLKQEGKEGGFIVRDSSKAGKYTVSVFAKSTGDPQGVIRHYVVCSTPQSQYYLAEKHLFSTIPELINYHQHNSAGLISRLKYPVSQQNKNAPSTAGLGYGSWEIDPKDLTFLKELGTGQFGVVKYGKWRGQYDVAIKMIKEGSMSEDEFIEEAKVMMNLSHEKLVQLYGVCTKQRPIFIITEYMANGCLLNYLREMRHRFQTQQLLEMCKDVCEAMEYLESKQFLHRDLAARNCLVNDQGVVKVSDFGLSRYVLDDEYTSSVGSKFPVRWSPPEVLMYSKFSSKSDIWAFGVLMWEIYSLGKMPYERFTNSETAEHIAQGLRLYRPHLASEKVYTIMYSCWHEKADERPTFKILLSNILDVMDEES

SMILES: Nc1ncnc2c1c(-c1ccc(Oc3ccccc3)cc1)nn2C1CCN(CC(=O)NCCOCCOCCOCCOCCNC(=O)COc2c(Br)cc(/C=C3\C(=O)Nc4ccc(Br)cc43)cc2Br)CC1 [Compound 13]
- BLK/Vinculin intensity (relative to DMSO control group) (BLK; 3 μM, 6 h, Fig. 2g): 37.145 and 35.6045 and 46.4487
- BLK/Vinculin intensity (relative to DMSO control group) (BLK; 10 μM, 6 h, Fig. 2g): 21.4399 and 23.7367 and 36.6727
- BLK/Vinculin intensity (relative to DMSO control group) (BLK; 30 μM, 6 h, Fig. 2g): 37.0963 and 39.3424 and 67.6199
- reduction of BLK levels (BLK; Ramos cells, 6 h): 70%
- BLK/Vinculin intensity (relative to DMSO control group) (BLK; Ramos cells, pretreated CFZ 1 μM 40 min, then 10 μM, 6h, Fig. 2h): 73.6122 and 85.1867 and 106.763
- BLK/Vinculin intensity (relative to DMSO control group) (BLK; Ramos cells, pretreated CQ 50 μM 40 min, then 10 μM, 6h, Fig. 2h): 24.1946 and 36.2698 and 40.4347
- BLK/Vinculin intensity (relative to DMSO control group) (BLK; Ramos cells, pretreated MLN4924 1 μM 40 min, then 10 μM, 6h, Fig. 2h): 110.614 and 82.1333 and 144.155
- reduction of BTK levels (BTK): 50%

SMILES: O=C1Nc2ccc(Br)cc2C1=Cc1cc(Br)c(OCCO)c(Br)c1 [Compound 42]
- Activity [%] (N=1) (SIRT2): 104%
- Activity [%] (N=2) (SIRT2): 111%
- number of wildtype kinases inhibited by more than 50 % [1]: seven
- Activity [%] (N=1) (SIRT3): 67%
- Activity [%] (N=2) (SIRT3): 67%
- BRD2/Vinculin intensity (relative to control group) (BRD2; Hep G2 cells, pretreated with compound at 30 μM 1 h, single repeats, Fig. 4h): 46.6052 and 52.1075 and 59.9094 and 63.5387
- Value (Mean ± SD): Relative BRD2 levels remaining in Hep G2 cells after treatment with compounds followed by treatment with 9, with DMSO control for normalization (BRD2; qualitative ICW assay, pretreated at 30 μM 1 h, Supplementary Table 1): 55.54 ± 6.61
- Activity [%] (N=1) (SIRT6): 87%
- Activity [%] (N=2) (SIRT6): 90%
- Activity [%] (N=1) (SIRT5): 95%
- Activity [%] (N=2) (SIRT5): 98%
- Activity [%] (N=1) (SIRT1): 93%
- Activity [%] (N=2) (SIRT1): 97%
